Test results as given in ChEMBL document CHEMBL4806968, “Hipk inhibitors and methods of use thereof” (2020).
Active and inactive are the calls of the source. The rule behind the calls is not given here.

Assays:
[1] = biological target: Vascular endothelial growth factor receptor 2 (Homo sapiens) (UniProt P35968); experiment: Inhibition of KDR (unknown origin) at 0.5 uM relative to control
[2] = biological target: MAP kinase-interacting serine/threonine-protein kinase 2 (Homo sapiens) (UniProt Q9HBH9); experiment: Inhibition of MNK2 (unknown origin) at 0.5 uM relative to control
[3] = biological target: Receptor-interacting serine/threonine-protein kinase 2 (Homo sapiens) (UniProt O43353); experiment: Inhibition of RIPK2 (unknown origin) at 0.5 uM relative to control
[4] = biological target: Macrophage colony-stimulating factor 1 receptor (Homo sapiens) (UniProt P07333); experiment: Inhibition of FMS (unknown origin) at 0.5 uM relative to control
[5] = biological target: RAF proto-oncogene serine/threonine-protein kinase (Homo sapiens) (UniProt P04049); experiment: Inhibition of CRAF (unknown origin) at 0.5 uM relative to control
[6] = biological target: MAP kinase-interacting serine/threonine-protein kinase 1 (Homo sapiens) (UniProt Q9BUB5); experiment: Inhibition of MNK1 (unknown origin) at 0.5 uM relative to control
[7] = biological target: Serine/threonine-protein kinase B-raf (Homo sapiens) (UniProt P15056); experiment: Inhibition of BRAF (unknown origin) at 0.5 uM relative to control
[8] = biological target: SRSF protein kinase 3 (Homo sapiens) (UniProt Q9UPE1); experiment: Inhibition of MSSK1 (unknown origin) at 0.5 uM relative to control
[9] = biological target: Mitogen-activated protein kinase kinase kinase kinase 5 (Homo sapiens) (UniProt Q9Y4K4); experiment: Inhibition of MAP4K5 (unknown origin) at 0.5 uM relative to control
[10] = biological target: Ephrin type-A receptor 4 (Homo sapiens) (UniProt P54764); experiment: Inhibition of EPHA4 (unknown origin) at 0.5 uM relative to control
[11] = biological target: T1, Tyrosine-protein kinase Mer (Homo sapiens) (UniProt Q12866); experiment: Inhibition of MER (unknown origin) at 0.5 uM relative to control
T1 sequence (whole entry): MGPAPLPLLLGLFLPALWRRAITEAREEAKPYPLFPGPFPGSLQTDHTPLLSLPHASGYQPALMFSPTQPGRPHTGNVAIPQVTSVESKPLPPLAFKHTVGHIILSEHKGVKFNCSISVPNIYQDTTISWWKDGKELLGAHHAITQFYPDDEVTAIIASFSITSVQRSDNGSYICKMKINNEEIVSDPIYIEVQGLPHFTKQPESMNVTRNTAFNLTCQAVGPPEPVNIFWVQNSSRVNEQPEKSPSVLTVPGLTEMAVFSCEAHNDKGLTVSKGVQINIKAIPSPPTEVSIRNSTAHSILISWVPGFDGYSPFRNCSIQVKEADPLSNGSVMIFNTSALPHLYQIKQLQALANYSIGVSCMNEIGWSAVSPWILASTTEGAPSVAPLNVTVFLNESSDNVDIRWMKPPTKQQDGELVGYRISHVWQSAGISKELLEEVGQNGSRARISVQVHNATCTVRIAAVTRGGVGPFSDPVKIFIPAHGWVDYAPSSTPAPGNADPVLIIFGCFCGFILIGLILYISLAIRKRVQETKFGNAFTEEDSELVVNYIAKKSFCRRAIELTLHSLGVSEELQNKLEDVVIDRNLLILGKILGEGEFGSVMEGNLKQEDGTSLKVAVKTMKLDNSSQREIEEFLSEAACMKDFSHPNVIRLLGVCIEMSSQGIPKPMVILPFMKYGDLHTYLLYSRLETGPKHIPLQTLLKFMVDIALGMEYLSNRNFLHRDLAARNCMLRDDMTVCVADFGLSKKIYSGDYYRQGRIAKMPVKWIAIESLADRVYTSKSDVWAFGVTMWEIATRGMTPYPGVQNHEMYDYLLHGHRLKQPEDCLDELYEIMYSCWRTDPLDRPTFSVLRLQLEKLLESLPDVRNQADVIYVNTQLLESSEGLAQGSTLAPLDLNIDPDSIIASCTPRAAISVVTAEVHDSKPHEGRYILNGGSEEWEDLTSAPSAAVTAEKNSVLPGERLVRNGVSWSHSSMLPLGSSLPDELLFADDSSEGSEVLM

[12] = biological target: Tyrosine-protein kinase receptor UFO (Homo sapiens) (UniProt P30530); experiment: Inhibition of AXL (unknown origin) at 0.5 uM relative to control
[13] = biological target: Angiopoietin-1 receptor (Homo sapiens) (UniProt Q02763); experiment: Inhibition of TIE2 (unknown origin) at 0.5 uM relative to control
[14] = biological target: Ephrin type-A receptor 5 (Homo sapiens) (UniProt P54756); experiment: Inhibition of EPH-A5 (unknown origin) at 0.5 uM relative to control
[15] = biological target: Homeodomain-interacting protein kinase 2 (Homo sapiens) (UniProt Q9H2X6); experiment: Inhibition of HIPK2 (unknown origin) assessed as effect on HIPK2 protein level by Western blotting analysis
GILM3 = experiment: Inhibition of cell migration in human GILM3 cells at 1 to 10 uM; assay type: functional, cell-based; settings: dose 1-10 µM
MDA-MB-231 [16] = experiment: Inhibition of cell migration in human MDA-MB-231 cells; assay type: functional, cell-based
MDA-MB-231 [17] = experiment: Inhibition of HIPK4 protein expression in human MDA-MB-231 cells by Western blotting analysis; assay type: functional, cell-based
MDA-MB-231 [18] = experiment: Inhibition of FAK/pFAK protein expression in human MDA-MB-231 cells by Western blotting analysis; assay type: functional, cell-based
[19] = biological target: Mitogen-activated protein kinase 14 (Homo sapiens) (UniProt Q16539); experiment: Inhibition of p38alpha (unknown origin) at 0.5 uM relative to control
[20] = biological target: Ephrin type-A receptor 7 (Homo sapiens) (UniProt Q15375); experiment: Inhibition of EPHA7 (unknown origin) at 0.5 uM relative to control
[21] = biological target: Mitogen-activated protein kinase 11 (Homo sapiens) (UniProt Q15759); experiment: Inhibition of p38beta (unknown origin) at 0.5 uM relative to control
[22] = biological target: Ephrin type-A receptor 1 (Homo sapiens) (UniProt P21709); experiment: Inhibition of EPHA1 (unknown origin) at 0.5 uM relative to control
[23] = biological target: Serine/threonine-protein kinase PLK2 (Homo sapiens) (UniProt Q9NYY3); experiment: Inhibition of PLK2 (unknown origin) at 0.5 uM relative to control
[24] = biological target: Serine/threonine-protein kinase TAO2 (Homo sapiens) (UniProt Q9UL54); experiment: Inhibition of TAOK2 (unknown origin) at 0.5 uM relative to control
[25] = biological target: Tyrosine-protein kinase ABL2 (Homo sapiens) (UniProt P42684); experiment: Inhibition of ARG (unknown origin) at 0.5 uM relative to control
[26] = biological target: Vascular endothelial growth factor receptor 3 (Homo sapiens) (UniProt P35916); experiment: Inhibition of FLT4 (unknown origin) at 0.5 uM relative to control
[27] = biological target: Fibroblast growth factor receptor 2 (Homo sapiens) (UniProt P21802); experiment: Inhibition of FGFR2 (unknown origin) at 0.5 uM relative to control

Angiopoietin-1 receptor (Homo sapiens), sequence (Q02763 whole entry): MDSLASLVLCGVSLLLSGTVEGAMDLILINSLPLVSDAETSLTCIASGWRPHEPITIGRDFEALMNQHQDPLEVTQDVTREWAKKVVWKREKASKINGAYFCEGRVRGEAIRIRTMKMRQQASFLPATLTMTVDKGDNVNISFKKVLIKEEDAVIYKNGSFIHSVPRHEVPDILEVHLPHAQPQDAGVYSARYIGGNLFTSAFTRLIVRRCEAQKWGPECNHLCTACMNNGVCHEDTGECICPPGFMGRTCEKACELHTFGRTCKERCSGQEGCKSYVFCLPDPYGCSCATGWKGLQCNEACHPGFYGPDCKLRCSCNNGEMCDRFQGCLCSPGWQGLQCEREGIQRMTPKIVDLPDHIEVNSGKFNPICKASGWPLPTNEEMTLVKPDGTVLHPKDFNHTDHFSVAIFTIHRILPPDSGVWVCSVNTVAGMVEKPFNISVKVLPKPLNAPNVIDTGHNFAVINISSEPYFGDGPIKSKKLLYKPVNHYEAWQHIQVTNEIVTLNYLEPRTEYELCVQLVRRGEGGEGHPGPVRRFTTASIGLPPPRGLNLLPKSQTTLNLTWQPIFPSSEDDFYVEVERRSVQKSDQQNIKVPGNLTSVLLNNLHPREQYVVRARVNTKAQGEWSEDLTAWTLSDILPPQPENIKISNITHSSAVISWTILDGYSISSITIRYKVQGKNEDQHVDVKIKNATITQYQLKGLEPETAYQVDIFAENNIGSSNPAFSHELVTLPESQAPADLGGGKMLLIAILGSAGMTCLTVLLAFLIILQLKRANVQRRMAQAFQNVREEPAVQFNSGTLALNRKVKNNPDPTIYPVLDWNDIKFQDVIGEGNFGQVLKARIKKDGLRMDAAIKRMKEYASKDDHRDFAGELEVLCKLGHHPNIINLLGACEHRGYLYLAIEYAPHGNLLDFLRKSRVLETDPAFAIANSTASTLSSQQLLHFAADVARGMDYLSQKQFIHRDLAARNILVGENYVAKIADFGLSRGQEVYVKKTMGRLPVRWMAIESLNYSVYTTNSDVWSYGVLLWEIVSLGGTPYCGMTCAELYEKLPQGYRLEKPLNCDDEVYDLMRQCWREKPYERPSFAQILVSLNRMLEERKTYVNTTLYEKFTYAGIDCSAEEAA
Vascular endothelial growth factor receptor 2 (Homo sapiens), sequence (P35968 whole entry): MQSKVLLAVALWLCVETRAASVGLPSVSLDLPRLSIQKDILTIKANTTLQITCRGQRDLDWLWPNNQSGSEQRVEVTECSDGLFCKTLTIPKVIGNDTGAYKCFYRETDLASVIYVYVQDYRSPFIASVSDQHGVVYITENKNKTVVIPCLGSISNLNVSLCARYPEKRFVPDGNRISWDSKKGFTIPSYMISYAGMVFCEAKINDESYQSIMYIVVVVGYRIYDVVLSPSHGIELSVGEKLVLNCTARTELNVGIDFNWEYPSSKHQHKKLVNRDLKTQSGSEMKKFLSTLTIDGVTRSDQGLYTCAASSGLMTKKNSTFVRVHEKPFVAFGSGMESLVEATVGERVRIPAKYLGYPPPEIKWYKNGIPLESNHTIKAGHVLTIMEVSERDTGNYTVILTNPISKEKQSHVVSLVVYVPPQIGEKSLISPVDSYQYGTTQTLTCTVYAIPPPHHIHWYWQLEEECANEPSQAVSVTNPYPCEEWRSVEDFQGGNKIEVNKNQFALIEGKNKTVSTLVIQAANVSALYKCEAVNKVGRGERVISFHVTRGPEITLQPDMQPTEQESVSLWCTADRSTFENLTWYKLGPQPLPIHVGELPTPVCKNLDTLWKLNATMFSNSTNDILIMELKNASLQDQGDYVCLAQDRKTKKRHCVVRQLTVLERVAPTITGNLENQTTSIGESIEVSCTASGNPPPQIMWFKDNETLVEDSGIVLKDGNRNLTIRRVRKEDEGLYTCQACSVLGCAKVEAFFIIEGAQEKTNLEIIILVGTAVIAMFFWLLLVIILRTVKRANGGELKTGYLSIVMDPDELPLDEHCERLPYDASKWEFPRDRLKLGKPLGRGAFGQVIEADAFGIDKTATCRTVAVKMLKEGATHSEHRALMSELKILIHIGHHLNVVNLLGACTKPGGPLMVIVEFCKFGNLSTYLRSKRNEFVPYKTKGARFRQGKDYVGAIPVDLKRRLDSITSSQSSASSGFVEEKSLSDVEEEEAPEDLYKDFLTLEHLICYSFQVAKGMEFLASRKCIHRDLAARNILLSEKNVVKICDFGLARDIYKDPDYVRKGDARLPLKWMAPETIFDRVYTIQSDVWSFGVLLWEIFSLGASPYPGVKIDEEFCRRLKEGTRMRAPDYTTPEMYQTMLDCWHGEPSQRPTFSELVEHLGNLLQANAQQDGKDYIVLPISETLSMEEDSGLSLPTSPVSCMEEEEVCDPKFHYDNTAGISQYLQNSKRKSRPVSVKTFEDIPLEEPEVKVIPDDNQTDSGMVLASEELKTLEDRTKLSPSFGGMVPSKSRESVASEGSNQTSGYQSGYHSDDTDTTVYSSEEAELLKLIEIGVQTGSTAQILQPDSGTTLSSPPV
Ephrin type-A receptor 4 (Homo sapiens), sequence (P54764 whole entry): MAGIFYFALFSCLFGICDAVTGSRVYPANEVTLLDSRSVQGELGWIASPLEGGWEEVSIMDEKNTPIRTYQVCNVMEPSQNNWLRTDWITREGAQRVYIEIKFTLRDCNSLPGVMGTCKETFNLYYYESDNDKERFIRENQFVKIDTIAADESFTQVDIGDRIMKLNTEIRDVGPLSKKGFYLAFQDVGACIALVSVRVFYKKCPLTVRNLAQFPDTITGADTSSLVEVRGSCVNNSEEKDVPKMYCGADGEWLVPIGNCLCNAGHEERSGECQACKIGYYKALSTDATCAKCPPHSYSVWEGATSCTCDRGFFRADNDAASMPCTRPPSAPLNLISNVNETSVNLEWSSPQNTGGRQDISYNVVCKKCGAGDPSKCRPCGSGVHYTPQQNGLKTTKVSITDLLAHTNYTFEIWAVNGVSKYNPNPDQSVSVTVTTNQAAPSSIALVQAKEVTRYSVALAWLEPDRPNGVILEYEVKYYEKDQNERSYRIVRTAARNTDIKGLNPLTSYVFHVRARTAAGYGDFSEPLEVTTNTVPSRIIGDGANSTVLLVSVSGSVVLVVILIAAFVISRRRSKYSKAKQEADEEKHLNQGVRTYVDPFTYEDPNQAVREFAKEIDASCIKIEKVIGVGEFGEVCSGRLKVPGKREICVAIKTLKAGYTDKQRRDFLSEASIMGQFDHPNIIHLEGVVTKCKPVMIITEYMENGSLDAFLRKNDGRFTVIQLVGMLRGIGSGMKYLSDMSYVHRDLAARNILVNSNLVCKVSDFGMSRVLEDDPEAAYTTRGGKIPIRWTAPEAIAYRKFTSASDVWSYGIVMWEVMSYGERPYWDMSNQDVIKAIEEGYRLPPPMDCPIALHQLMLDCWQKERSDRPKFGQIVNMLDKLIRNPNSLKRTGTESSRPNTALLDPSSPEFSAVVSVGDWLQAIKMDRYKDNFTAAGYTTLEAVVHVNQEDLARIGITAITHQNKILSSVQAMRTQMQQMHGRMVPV
Homeodomain-interacting protein kinase 2 (Homo sapiens), sequence (Q9H2X6 whole entry, looked up): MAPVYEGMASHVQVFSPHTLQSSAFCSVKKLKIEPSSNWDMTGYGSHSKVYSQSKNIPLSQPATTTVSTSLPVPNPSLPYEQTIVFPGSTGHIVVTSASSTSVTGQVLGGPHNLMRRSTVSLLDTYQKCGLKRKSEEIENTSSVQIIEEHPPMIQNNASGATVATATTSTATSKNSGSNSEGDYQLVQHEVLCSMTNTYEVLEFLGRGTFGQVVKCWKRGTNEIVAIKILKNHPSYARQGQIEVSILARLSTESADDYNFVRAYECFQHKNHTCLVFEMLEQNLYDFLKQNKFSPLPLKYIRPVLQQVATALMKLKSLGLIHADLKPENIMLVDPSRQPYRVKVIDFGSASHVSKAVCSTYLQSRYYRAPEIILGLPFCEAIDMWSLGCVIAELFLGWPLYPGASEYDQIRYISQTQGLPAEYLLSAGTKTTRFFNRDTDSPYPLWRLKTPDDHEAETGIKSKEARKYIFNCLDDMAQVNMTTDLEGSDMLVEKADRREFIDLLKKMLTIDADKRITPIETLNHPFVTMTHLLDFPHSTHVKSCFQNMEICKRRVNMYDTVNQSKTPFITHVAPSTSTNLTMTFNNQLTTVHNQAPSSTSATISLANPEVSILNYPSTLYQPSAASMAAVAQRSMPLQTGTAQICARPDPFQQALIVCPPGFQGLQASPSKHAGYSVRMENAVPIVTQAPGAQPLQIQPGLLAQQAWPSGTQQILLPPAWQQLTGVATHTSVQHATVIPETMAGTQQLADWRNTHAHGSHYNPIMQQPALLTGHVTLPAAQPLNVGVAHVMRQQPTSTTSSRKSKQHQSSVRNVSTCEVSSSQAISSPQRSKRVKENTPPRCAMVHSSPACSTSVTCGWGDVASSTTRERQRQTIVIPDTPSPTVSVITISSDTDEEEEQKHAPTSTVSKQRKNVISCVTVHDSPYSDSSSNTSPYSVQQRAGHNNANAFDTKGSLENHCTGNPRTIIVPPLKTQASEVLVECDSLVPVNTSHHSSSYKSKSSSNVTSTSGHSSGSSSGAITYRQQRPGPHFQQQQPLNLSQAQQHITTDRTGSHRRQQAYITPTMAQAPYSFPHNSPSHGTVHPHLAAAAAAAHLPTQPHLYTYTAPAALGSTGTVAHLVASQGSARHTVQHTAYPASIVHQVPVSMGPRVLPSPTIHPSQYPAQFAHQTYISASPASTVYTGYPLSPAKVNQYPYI
Mitogen-activated protein kinase 14 (Homo sapiens), sequence (Q16539 whole entry): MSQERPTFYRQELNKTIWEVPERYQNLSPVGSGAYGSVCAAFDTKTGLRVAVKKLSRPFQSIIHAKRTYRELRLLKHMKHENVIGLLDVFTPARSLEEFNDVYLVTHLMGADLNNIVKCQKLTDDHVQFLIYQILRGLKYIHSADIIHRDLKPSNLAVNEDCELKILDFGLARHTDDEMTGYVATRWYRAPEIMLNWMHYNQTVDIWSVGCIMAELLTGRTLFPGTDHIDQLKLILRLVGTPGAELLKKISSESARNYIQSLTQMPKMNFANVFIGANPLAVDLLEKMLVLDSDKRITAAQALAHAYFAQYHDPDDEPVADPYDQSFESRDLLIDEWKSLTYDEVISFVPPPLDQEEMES

inhibition [1] | inhibition [3] | inhibition [4] | inhibition [5] | inhibition [10] | inhibition [11] | inhibition [12] | inhibition [13] | inhibition [14] | Activity [15] | inhibition [19] | inhibition [20] | SMILES | inhibition (GILM3) | inhibition (MDA-MB-231 [16]) | inhibition (MDA-MB-231 [17]) | inhibition (MDA-MB-231 [18]) | other results
25% | 65% | 47% | 57% | – | – | – | – | – | – | – | – | CNC(=O)c1cc(Oc2ccc(NC(=O)c3n[nH]nc3-c3ccc(F)cc3)cc2)ccn1 | – | – | – | – | inhibition [2]: 32%; inhibition [6]: 54%; inhibition [7]: 28%; inhibition [8]: 25%
95% | – | – | – | 92% | 91% | 91% | 88% | 85% | inactive | – | – | CNC(=O)c1cc(Oc2ccc(NC(=O)c3nc(SC)[nH]c3-c3ccc(F)cc3)cc2)ccn1 | Active | Active | Active | Active | inhibition [9]: 94%; inhibition [2]: 90%
– | – | – | – | – | – | – | 25% | – | – | 25% | 22% | CSc1nc(C(=O)Nc2ccc(Oc3cc4cnn(C)c4cc3Br)cc2)c(-c2ccc(F)cc2)o1 | – | – | – | – | inhibition [21]: 21%; inhibition [7]: 19%; inhibition [8]: 14%; inhibition [22]: 37%; inhibition [23]: 19%
– | 40% | – | 63% | – | – | – | 43% | 50% | – | – | 60% | CNC(=O)c1cc(Oc2ccc(NC(=O)c3nc(NC)sc3-c3ccc(F)cc3)cc2)ccn1 | – | – | – | – | inhibition [24]: 44%
53% | – | 43% | – | – | 49% | 52% | – | – | – | – | – | CNC(=O)c1cc(Oc2ccc(NC(=O)c3nc(C(F)(F)F)sc3-c3ccc(F)cc3)cc2)ccn1 | – | – | – | – | inhibition [9]: 55%; inhibition [25]: 32%; inhibition [22]: 37%; inhibition [26]: 25%
27% | – | 39% | 11% | 18% | 60% | 83% | 53% | 21% | inactive | 15% | – | CNC(=O)c1cc(Oc2ccc(NC(=O)c3nc(S(C)(=O)=O)sc3-c3ccc(F)cc3)cc2)ccn1 | Active | Active | Active | Active | inhibition [27]: 11%
– | 63% | – | – | – | 55% | – | – | – | inactive | 65% | 41% | CNC(=O)c1cc(Oc2ccc(NC(=O)c3nc(SC)oc3-c3ccc(F)cc3)cc2)ccn1 | Active | Active | Active | Active | inhibition [25]: 40%; inhibition [21]: 40%
– | – | 65% | – | – | – | 64% | – | – | – | – | – | CNC(=O)c1cc(Oc2ccc(NC(=O)c3nc(SC)n(CCN(C)C)c3-c3ccc(F)cc3)cc2)ccn1 | – | – | – | – | –
– | 51% | – | – | 38% | 41% | – | – | – | – | 63% | 53% | CNC(=O)c1cc(Oc2ccc(NC(=O)c3nc(SC)oc3-c3ccc(F)cc3)cc2F)ccn1 | – | – | – | – | –
